≈ marks a conversion by molar mass, not a printed value.
Tests used:
Format in all cases: functional
[1] = system: Staphylococcus aureus; experiment: In vitro antibacterial activity against Staphylococcus aureus A9537 was determined
[2] = system: Staphylococcus epidermidis; experiment: In vitro antibacterial activity against Staphylococcus epidermidis A25441 was determined
[3] = system: Staphylococcus aureus; experiment: In vitro antibacterial activity against Staphylococcus aureus A20700 was determined

Row | Compound | MIC [1] | MIC [2] | MIC [3]
1 | COC1C(OC(=O)c2cccn2C)C(O)C(Oc2ccc3c(O)c(NC(=O)c4ccccc4)c(=O)oc3c2C)OC1(C)C (stereo not drawn) | 2 µg/mL (≈ 3.37 µM) | 8 µg/mL (≈ 13.5 µM) | 8 µg/mL (≈ 13.5 µM)
2 | COC1C(OC(=O)c2c(C)ncn2Cc2ccccc2)C(O)C(Oc2ccc3c(O)c(NC(=O)c4ccccc4)c(=O)oc3c2C)OC1(C)C (stereo not drawn) | 8 µg/mL (≈ 11.7 µM) | 2 µg/mL (≈ 2.93 µM) | 4 µg/mL (≈ 5.85 µM)
3 | COC1C(OC(=O)c2ccc(C)[nH]2)C(O)C(Oc2ccc3c(O)c(NC(=O)c4ccccc4)c(=O)oc3c2C)OC1(C)C (stereo not drawn) | 0.13 µg/mL (≈ 0.219 µM) | 0.13 µg/mL (≈ 0.219 µM) | 0.13 µg/mL (≈ 0.219 µM)

Further compounds by falling MIC [1], results first:

Row | MIC [1] | MIC [2] | MIC [3] | Compound
4 | 16 µg/mL | 8 µg/mL | 16 µg/mL | COC1C(OC(=O)c2[nH]cnc2C)C(O)C(Oc2ccc3c(O)c(NC(=O)c4ccccc4)c(=O)oc3c2C)OC1(C)C.Cc1ccc(S(=O)(=O)O)cc1 (stereo not drawn)
5 | 8 µg/mL (≈ 13.8 µM) | 8 µg/mL (≈ 13.8 µM) | 8 µg/mL (≈ 13.8 µM) | COC1C(OC(=O)c2ccco2)C(O)C(Oc2ccc3c(O)c(NC(=O)c4ccccc4)c(=O)oc3c2C)OC1(C)C (stereo not drawn)
6 | 0.03 µg/mL (≈ 0.0492 µM) | 8 µg/mL (≈ 13.1 µM) | 4 µg/mL (≈ 6.56 µM) | COC1C(OC(=O)c2ccc(C)s2)C(O)C(Oc2ccc3c(O)c(NC(=O)c4ccccc4)c(=O)oc3c2C)OC1(C)C (stereo not drawn)

From ChEMBL document CHEMBL1127925, “Synthesis and in vitro antibacterial activity of new semi-synthetic noviosylcoumarin antibiotics: chemical modification at the C-3 ester” (1994)
